According to US8063225B2, “Tricyclic compound derivatives useful in the treatment of neoplastic diseases, inflammatory disorders and immunomodulatory disorders” (Chembridge Corporation, priority 2006, dated 2011):

Legend:
[1] = biological target: T1, Alk (Homo sapiens, UniProt Q9UM73); assay: Tyrosine kinase assay (Kinase-Glo or AlphaScreen), Alk; conditions: biochemical tyrosine kinase assay
T1 construct: 6×His- or GST-tagged kinase domain fragments of the corresponding RTKs expressed in baculovirus system; host or cells: baculovirus system
Method in brief: (§1)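 Inhibition measured on recombinant RTK kinase domains phosphorylating poly(Glu-Tyr) at 10 μM ATP, either by ATP depletion luminescence (37 °C, 60 min) or by PT66/PT100 AlphaScreen with biotinylated substrate (RT, 30 min plus 60 min bead step). For Alk, InsR and Jak2, enzyme titrated to ≤30% ATP consumption; IC50 from nonlinear regression.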

[2] = biological target: T2, InsR (Homo sapiens, UniProt P06213); assay: Tyrosine kinase assay (Kinase-Glo or AlphaScreen), InsR; conditions: biochemical tyrosine kinase assay
T2 construct: 6×His- or GST-tagged kinase domain fragments of the corresponding RTKs expressed in baculovirus system; host or cells: baculovirus system
Method in brief: as §1

[3] = biological target: T3, Jak2 (Homo sapiens, UniProt O60674); assay: Tyrosine kinase assay (Kinase-Glo or AlphaScreen), Jak2; conditions: biochemical tyrosine kinase assay
T3 construct: 6×His- or GST-tagged kinase domain fragments of the corresponding RTKs expressed in baculovirus system; host or cells: baculovirus system
Method in brief: as §1

[4] = test system: HEK293 (human normal embryonic kidney); assay: Cell proliferation inhibition, Cell Titer-Glo, HEK293; format: cell-based; conditions: cell proliferation assay, HEK293 cells, read-out: HEK 293 IC50
Procedure: IGF1R and other tyrosine kinase inhibitors can inhibit the proliferation of certain cancer cell lines indicating their possible therapeutic utility for treating the corresponding cancer types. Cancer cell lines of interest and control normal lines, including CHO, HEK293, BA/F3, MM1, H929, COLO205, PC3, DU145, MCF7, Panc1, ACHN, Hep G2, H460, K562, TT, U87-G, CAOV-3, SK-MEL5, Karpas 299, are plated in white, clear-bottomed 384-well cell culture plates at 2500-5000 cells per well and supplied with dilutions of tested compounds After a desired period of time (typically 3 days), the number of viable cells is quantitated by using Cell Titer-Glo Luminescent Cell Viability Assay (Promega), a cell proliferation assay system based on detection of total amount of ATP present as a measure of cell metabolic activity. The plated cells are mixed with the Cell Titer-Glo developing reagent and counted in a luminescence multiwell plate reader according to the standard manufacturer's protocol to generate IC50 curves for cell proliferation inhibition.
(§2) IGF1R and other tyrosine kinase inhibitors can inhibit the proliferation of certain cancer cell lines indicating their possible therapeutic utility for treating the corresponding cancer types. Cancer cell lines of interest and control normal lines, including CHO, HEK293, BA/F3, COLO205, PC3, DU145, MCF7, Panc1, ACHN, Hep G2, H460, K562, TT, U87-MG, CAOV-3, SK-MEL5, Karpas 299 and human multiple myeloma cell lines H929, MM1s, MM1r, UTMC2, CPM2, KMS11, My5, KMS12PE, My7, JJN3, KMS18, U266, SKMM2, RPMI-8226 are plated in white, clear-bottomed 384-well cell culture plates at 2500-5000 cells per well and supplied with dilutions of tested compounds After a desired period of time (typically 3 days), the number of viable cells is quantitated by using Cell Titer-Glo Luminescent Cell Viability Assay (Promega), a cell proliferation assay system based on detection of total amount of ATP present as a measure of cell metabolic activity. The plated cells are mixed with the Cell Titer-Glo developing reagent and counted in a luminescence multiwell plate reader according to the standard manufacturer's protocol to generate IC50 curves for cell proliferation inhibition. Results are typically reported as percent of growth (% viability =(OD72h(compound)−ODday0))/(OD72h(no compound)−ODday0). Alternatively, viable cells are quantitated by using the conventional colorimetric MTT assay. The MTT assay is based on the cleavage of the yellow tetrazolium salt MTT to purple formazan crystal by metabolic active cells. The formazan is then solubilized, and the concentration determined by optical density at 570 nm. The cells plated and incubated with a compound as described above are supplemented with the solution of MTT and incubated for 2-3 hours. The growth medium is removed and dimethyl sulfoxide is added into each well to dissolve the formazan. The absorbance is measured on an ELISA plate reader with a test wavelength of 570 nm and a background subtraction wavelength of 630 nm to obtain sample signal (OD570-OD630). […] The results are reported in terms of IC50 value for a particular compound and a cell line in the standard 3-day proliferation assay using Cell Titer-Glo. […] The results are reported in terms of IC50 value for a particular compound and a cell line in the standard 3-day proliferation assay using MTT assay.

[5] = test system: H929 (multiple myeloma); assay: Cell proliferation inhibition, Cell Titer-Glo, H929; format: cell-based; conditions: Homo sapiens, NCI-H929; cell proliferation assay, H929 cells
Method in brief: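 Cells seeded at 2500-5000 per well with serially diluted compound for typically 3 days. Viable cells measured by ATP luminescence (Cell Titer-Glo); IC50 from proliferation-inhibition curves.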

[6] = biological target: T4, IGF1R tyrosine kinase (Homo sapiens, UniProt P08069); assay: IGF1R tyrosine kinase assay (Kinase-Glo ATP depletion or PT66/PT100 AlphaScreen); conditions: biochemical tyrosine kinase assay
T4 construct: 6×His- or GST-tagged kinase domain fragments of the corresponding RTKs expressed in baculovirus system; host or cells: baculovirus system
Method in brief: as §1

[7] = test system: K562; assay: Cell proliferation inhibition, Cell Titer-Glo, K562; format: cell-based; conditions: Homo sapiens; cell proliferation assay, K562 cells
Method in brief: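 Proliferation inhibition in human K562 cells was assessed in a standard 3-day assay. Cells (2500-5000 per well) in 384-well white, clear-bottomed plates received serial compound dilutions, then Cell Titer-Glo reagent was added per the manufacturer's protocol. Luminescence reflecting ATP content of metabolically active cells was counted in a multiwell reader, and IC50 curves were generated.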

[8] = biological target: T5, TrkA (Homo sapiens, UniProt P04629); assay: Tyrosine kinase assay (Kinase-Glo or AlphaScreen), TrkA; conditions: biochemical tyrosine kinase assay
T5 construct: 6×His- or GST-tagged kinase domain fragments of the corresponding RTKs expressed in baculovirus system; host or cells: baculovirus system
Procedure: To determine inhibition of several tyrosine kinases, such as IGF1R, InsR, Alk, TrkA and Jak2, kinase assays are conducted using either Kinase-Glo (Promega) or AlphaScreen (PerkinElmer) kinase assay platforms. The Kinase-Glo Luminescent Kinase Assay is a homogeneous method for measuring kinase activity by determining the amount of ATP remaining after a kinase reaction. The luminescent signal is proportional to the amount of ATP and inversely proportional to the amount of kinase activity. Tyrosine kinase PT66 AlphaScreen Assay is a high-sensitivity homogeneous, anti-phosphotyrosine antibody-mediated luminescent proximity method measuring, incorporation of phosphate in synthetic poly(Glu-Tyr) substrate. The kinase preparations used consist of purified recombinant, 6×His- or GST-tagged kinase domain fragments of the corresponding RTKs expressed in baculovirus system.
The IGF1R tyrosine kinase is assayed in Kinase-Glo ATP depletion assay using the synthetic polymer poly(Glu-Tyr, 4:1) (Sigma Chemicals) as a phosphoacceptor substrate. Each reaction mixture consists of a total volume of 10 μl and contains 40 ng of the enzyme, 5 μg of poly(Glu-Tyr), 10 μM of ATP and variable concentrations of test compounds. The mixtures also contain 50 mM Tris-HCl, pH 7.5; 5 mM MgCl2; 5 mM MnCl2; 2 mM DTT and 0.01% Tween 20. The reaction mixtures are incubated at 37° C. for 60 minutes and residual concentration of ATP in the mixture is determined by adding luciferase-containing Kinase-Glo (Promega) development reagent and counting luminescence levels using Fusion Universal Microplate Analyzer (PerkinElmer). Tested compounds are dissolved in dimethyl sulfoxide to a stock concentration of 10 mM and are typically evaluated in the assay at eight concentrations in 1 nM to 20 μM range, each in quadruplicate. […] IC50 values are derived by non-linear regression analysis using Prism 3.0 software (Graphpad Software). Other tyrosine kinases are assayed according to the same protocol after titrating amount of the enzyme to provide optimal signal-to-noise ratio and no more than 30% of total ATP consumption in the reaction conditions used.
The IGF1R tyrosine kinase is assayed in Phosphotyrosine (PT66 or PT 100) AlphaScreen chemiluminescent assay (PerkinElmer) according to the manufacturerer's recommendations. Each kinase reaction mixture consists of a total volume of 15 μl and contains 0.1-1 ng of the enzyme, 7 ng of biotinylated poly(Glu-Tyr) (Cis-Bio), 10 μM of ATP and variable concentrations of test compounds. The mixtures also contain 50 mM Tris-HCl, pH 7.5; 5 mM MgCl2; 5 mM MnCl2; 2 mM DTT and 0.01% Tween 20. The reaction mixtures are incubated at room temperature for 30 minutes. Ten (10) μl of the mixture of […] and donor beads (as supplied by the manufacturer) is then added to the reaction and the incubation is continued for an additional 60 minutes.

[9] = test system: MM1r; assay: Cell proliferation inhibition, MTT assay, MM1r; format: cell-based; conditions: Homo sapiens, MM.1R, 72 h, MM1R multiple myeloma cells, 3-day proliferation
Description: as §2

[10] = test system: CPM2; assay: Cell proliferation inhibition, MTT assay, CPM2; format: cell-based; conditions: Homo sapiens, Multiple myeloma cell, 72 h, CPM2 multiple myeloma cells, 3-day proliferation
Description: as §2

[11] = test system: KMS11; assay: Cell proliferation inhibition, MTT assay, KMS11; format: cell-based; conditions: Homo sapiens, KMS-11, 72 h, KMS11 multiple myeloma cells, 3-day proliferation
Description: as §2

[12] = test system: H929; assay: Cell proliferation inhibition, MTT assay, H929; format: cell-based; conditions: Homo sapiens, NCI-H929, 72 h, H929 multiple myeloma cells, 3-day proliferation
Description: as §2

[13] = test system: HEK293 (human normal embryonic kidney); assay: Cell proliferation inhibition, MTT assay, HEK293; format: cell-based; conditions: 72 h, HEK293 cells, 3-day proliferation, read-out: HEK IC50
Description: as §2

[14] = test system: MM1s; assay: Cell proliferation inhibition, MTT assay, MM1s; format: cell-based; conditions: Homo sapiens, MM1.S, 72 h, MM1S multiple myeloma cells, 3-day proliferation
Description: as §2

[15] = test system: CHO (chinese hamster ovary); assay: Cell proliferation inhibition, MTT assay, CHO; format: cell-based; conditions: Cricetulus griseus, 72 h, CHO cells, 3-day proliferation
Description: as §2

[16] = test system: UTMC2; assay: Cell proliferation inhibition, MTT assay, UTMC2; format: cell-based; conditions: Homo sapiens, 72 h, UTMC2 multiple myeloma cells, 3-day proliferation
Description: as §2

[17] = test system: Ba/F3; assay: Cell proliferation inhibition, Cell Titer-Glo, Ba/F3; format: cell-based; conditions: Mus musculus, BaF3; cell proliferation assay, Ba/F3 cells
Method in brief: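 This standard 3-day proliferation assay used Ba/F3 cells plated in 384-well white plates with clear bottoms at 2500-5000 cells per well and treated with compound dilutions. Viable cell number was determined by mixing in Cell Titer-Glo developing reagent according to the manufacturer's protocol and counting luminescence. Percent viability relative to day 0 and untreated wells produced IC50 curves.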

[18] = test system: Karpas-299; assay: Cell proliferation inhibition, Cell Titer-Glo, Karpas-299; format: cell-based; conditions: Homo sapiens; cell proliferation assay, Karpas-299 cells
Method in brief: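 In this standard 3-day proliferation assay, Karpas 299 cells plated at 2500-5000 cells per well in 384-well white, clear-bottomed plates were treated with compound dilutions. Cell Titer-Glo developing reagent was added following the manufacturer's protocol, luminescence reflecting ATP content was read on a multiwell plate reader, and IC50 curves were generated.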

T3 sequence (O60674 849-1124 limits assumed, species assumed): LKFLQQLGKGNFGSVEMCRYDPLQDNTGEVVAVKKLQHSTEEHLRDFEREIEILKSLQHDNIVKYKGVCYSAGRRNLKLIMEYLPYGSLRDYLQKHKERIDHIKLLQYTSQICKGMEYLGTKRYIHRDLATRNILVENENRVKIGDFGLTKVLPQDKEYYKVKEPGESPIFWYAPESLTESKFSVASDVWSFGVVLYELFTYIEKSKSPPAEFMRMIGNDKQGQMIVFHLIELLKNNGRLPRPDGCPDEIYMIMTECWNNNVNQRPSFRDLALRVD
T4 sequence (P08069 999-1274 limits assumed): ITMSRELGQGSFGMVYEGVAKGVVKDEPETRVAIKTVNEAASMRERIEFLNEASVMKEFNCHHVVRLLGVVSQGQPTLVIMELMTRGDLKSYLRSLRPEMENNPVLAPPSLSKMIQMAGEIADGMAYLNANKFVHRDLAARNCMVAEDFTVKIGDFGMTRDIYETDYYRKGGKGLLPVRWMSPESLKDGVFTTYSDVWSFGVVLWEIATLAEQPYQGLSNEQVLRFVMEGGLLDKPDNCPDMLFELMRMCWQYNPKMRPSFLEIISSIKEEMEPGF
T5 sequence (P04629 510-781 limits assumed, species assumed): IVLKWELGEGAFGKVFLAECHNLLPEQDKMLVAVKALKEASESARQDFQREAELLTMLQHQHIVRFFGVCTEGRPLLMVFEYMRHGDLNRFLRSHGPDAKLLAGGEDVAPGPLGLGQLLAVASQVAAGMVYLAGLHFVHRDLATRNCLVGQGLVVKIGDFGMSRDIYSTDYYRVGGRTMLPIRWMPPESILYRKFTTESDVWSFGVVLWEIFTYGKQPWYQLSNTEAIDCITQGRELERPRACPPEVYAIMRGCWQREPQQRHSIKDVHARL
T2 sequence (P06213 1023-1298 limits assumed, species assumed): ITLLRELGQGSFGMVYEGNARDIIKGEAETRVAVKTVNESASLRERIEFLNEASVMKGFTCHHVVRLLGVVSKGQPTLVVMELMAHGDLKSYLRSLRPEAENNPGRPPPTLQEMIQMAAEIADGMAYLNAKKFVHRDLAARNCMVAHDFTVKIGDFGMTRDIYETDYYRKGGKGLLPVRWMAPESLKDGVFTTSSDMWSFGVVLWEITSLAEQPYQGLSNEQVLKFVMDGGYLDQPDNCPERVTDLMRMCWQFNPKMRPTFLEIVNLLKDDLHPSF
T1 sequence (Q9UM73 1116-1392 limits assumed, species assumed): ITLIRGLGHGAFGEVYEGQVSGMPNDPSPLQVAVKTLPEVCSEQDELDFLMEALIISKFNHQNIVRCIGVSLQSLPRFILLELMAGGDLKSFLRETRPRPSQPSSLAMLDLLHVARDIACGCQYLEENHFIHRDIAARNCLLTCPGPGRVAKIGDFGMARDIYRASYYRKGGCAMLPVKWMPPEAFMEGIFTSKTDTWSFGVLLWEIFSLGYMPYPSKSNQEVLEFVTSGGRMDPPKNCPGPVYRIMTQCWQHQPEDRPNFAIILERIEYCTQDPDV

| SMILES | IC50 [1] | IC50 [2] | IC50 [3] | IC50 [4] | IC50 [5] | IC50 [6] | IC50 [7] | IC50 [8] | IC50 [9] | IC50 [10] | IC50 [11] | IC50 [12] | IC50 [13] | IC50 [14] | IC50 [15] | IC50 [16] | IC50 [17] | IC50 [18] |
| --- | --- | --- | --- | --- | --- | --- | --- | --- | --- | --- | --- | --- | --- | --- | --- | --- | --- | --- |
| CN1CCC(N2Cc3cc4nc(-c5c(NC[C@@H](O)c6cccc(Cl)c6)cc[nH]c5=O)[nH]c4cc3C2=O)CC1 [compound 16] | < 0.5 µM | < 0.5 µM | 0.5 to 5 µM | 5 to 15 µM | 5 to 15 µM | < 0.5 µM | > 15 µM | < 0.5 µM | – | – | – | – | – | – | – | – | – | – |
| Cc1ccc(OCC(=O)CNc2cc[nH]c(=O)c2-c2nc3cc4c(cc3[nH]2)CN(CCCN2CCCC2)C4=O)c(C)c1 [drawing 840] | – | – | – | – | – | – | – | – | 1 to 5 µM | 5 to 20 µM | 5 to 20 µM | 0.5 to 1 µM | ≥ 20 µM | 1 to 5 µM | ≥ 20 µM | 0.5 to 1 µM | – | – |
| CCc1cc2c(cc1OCC(=O)CNc1cc[nH]c(=O)c1-c1nc3cc4c(cc3[nH]1)C(=O)N(C1CCN(C)CC1)C4)OCO2 [drawing 842] | – | – | – | – | – | – | – | – | 1 to 5 µM | 1 to 5 µM | 1 to 5 µM | 0.5 to 1 µM | ≥ 20 µM | < 0.5 µM | ≥ 20 µM | < 0.5 µM | – | – |
| Cc1c(Cl)cccc1OC[C@H](O)CNc1cc[nH]c(=O)c1-c1nc2cc3c(cc2[nH]1)C(=O)N(C1CCN(CCCO)CC1)C3=O [compound 135] | 0.5 to 5 µM | 0.5 to 5 µM | 0.5 to 5 µM | – | > 15 µM | < 0.5 µM | > 15 µM | < 0.5 µM | – | – | – | – | – | – | – | – | > 15 µM | > 15 µM |
